Legend:
human P2X4 = target: T1, human P2X4 (Homo sapiens, UniProt Q99571); test: FLIPR assay, human P2X4 1321N1 Astrocytoma cells; format: cell-based; details: agonist Mg-ATP 0.5 μM (EC80)
T1 sequence (Q99571 1-388): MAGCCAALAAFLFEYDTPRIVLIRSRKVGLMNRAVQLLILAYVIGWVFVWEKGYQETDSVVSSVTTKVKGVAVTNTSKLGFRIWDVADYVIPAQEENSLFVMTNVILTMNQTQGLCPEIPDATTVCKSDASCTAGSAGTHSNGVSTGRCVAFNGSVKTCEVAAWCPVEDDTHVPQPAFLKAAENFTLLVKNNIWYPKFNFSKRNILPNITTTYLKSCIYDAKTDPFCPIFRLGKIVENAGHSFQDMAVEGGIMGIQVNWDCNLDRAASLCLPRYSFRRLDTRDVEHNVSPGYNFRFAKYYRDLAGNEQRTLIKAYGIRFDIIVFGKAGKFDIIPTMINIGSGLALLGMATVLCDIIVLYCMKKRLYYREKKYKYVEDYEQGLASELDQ
Protocol: (§1) 1321N1 Astrocytoma cells stably expressing human P2X4 or rat P2X4 or mouse P2X4 were plated in Collagen I TC-treated microplate at a seeding density of 10000 cells/well and incubated overnight. P2X4 function was assessed by measuring intracellular calcium changes using the calcium-chelating dye Fluo8-AM (Molecular Devices) on a fluorescent imaging plate reader (FLEX/FLIPR station; Molecular Devices). On the day of the assay, the medium was removed and the cells were incubated for 30 min at 37 °C and 5% CO2 in 30 μL of dye buffer (Hank's balanced salt solution, 10 mM HEPES, 1.8 mM CaCl2, 1 mM MgCl2, 2 mM probenecid, 5 mM D-glucose monohydrate, 5 μM Fluo8-AM, pH=7.4). Compounds diluted in probenecid buffer (Hank's balanced salt solution, 10 mM HEPES, 1.8 mM CaCl2, 1 mM MgCl2, 2 mM probenecid, 5 mM D-glucose monohydrate, pH=7.4) were added in a volume of 10 μL and allowed to incubate for 30 min at room temperature. The final assay DMSO concentration was 0.25%. The agonist, Mg-ATP (Sigma), was added in a volume of 10 μL at a concentration representing the EC80 value. EC80 was determined to be 0.5 μM for human and mouse P2X4 and 5 μM for rat P2X4. The fluorescence was measured for an interval of 120 sec at 2 sec intervals. The excitation and emission wavelengths used to monitor fluorescence were 470-495 nm and 515-575 nm, respectively. The data was analyzed based on the increase in peak relative fluorescence units (RFU) compared to the basal fluorescence and the data was normalized to the agonist control. The compounds were tested in triplicates per plate and mean values were plotted in Excel XLFit to determine IC50 values, percentage of maximal inhibition and the Hill coefficients.

mouse P2X4 = target: T2, mouse P2X4 (Mus musculus, UniProt Q9JJX6); test: FLIPR assay, mouse P2X4 1321N1 Astrocytoma cells; format: cell-based; details: agonist Mg-ATP 0.5 μM (EC80)
T2 sequence (Q9JJX6 1-388): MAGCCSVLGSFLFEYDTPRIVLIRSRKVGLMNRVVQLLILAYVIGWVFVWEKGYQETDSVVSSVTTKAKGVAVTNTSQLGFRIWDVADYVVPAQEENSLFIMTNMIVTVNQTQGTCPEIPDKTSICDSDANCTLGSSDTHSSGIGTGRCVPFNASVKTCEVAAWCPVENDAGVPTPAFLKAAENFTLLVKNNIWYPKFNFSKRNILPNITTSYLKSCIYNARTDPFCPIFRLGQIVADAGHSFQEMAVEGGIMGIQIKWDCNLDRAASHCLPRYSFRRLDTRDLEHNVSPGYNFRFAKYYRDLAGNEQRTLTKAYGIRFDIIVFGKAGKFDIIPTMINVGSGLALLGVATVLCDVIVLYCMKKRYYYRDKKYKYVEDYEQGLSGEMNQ
Protocol: as §1

C57BL/6 mice = test: CFA Inflammation Model in Mice with Pain Behaviour Read Out; format: in vivo, mouse; details: oral 0.3, 1, 3 mg/kg, day 2 post-CFA, 1 h after treatment, vs vehicle
Protocol: Wild type female C57BL/6 mice (Taconic) received intraplantar injection of complete Freund's adjuvant (CFA) (30 μL, 1 mg/mL, Sigma) into the left hind paw under isoflurane anesthesia. Animals were administered orally with example 326 (0.3, 1, and 3 mg/kg, n=10/group) on day 2 post-CFA injection. Spontaneous pain-related behavior in freely moving animals was assessed using the automated dynamic weight bearing device (DWB, Bioseb, France) one hour after compound treatment according to published and validated protocols (Robinson et al., 2012; Tetreault et al., 2011; Gruen et al. 2014). For behavioral testing, the animal was placed inside a Plexiglas chamber in which the exerted pressure on the floor was measured. The animals were allowed to move freely within the apparatus for 5 min and subsequently pain behavior is recorded for a test period of another 5 min. The relative weight distribution is calculated by determining the ratio of the weight put on naïve (contralateral) vs. that put on the intraplantar CFA treated (ipsilateral) paws.
FIG. 3 as nonbinding explanatory example of compounds according to the invention represents the ratio of weight distribution in percent (y-axis) of mice orally treated with example 326 or vehicle 1 hour prior to weight distribution measurement. Each symbol represents the relative weight distribution for one mouse. […]

Structure (SMILES) | Human P2X4 1321N1 Astrocytoma Cells (FLIPR Assay) avg Efficacy [%] (human P2X4) | Mouse P2X4 1321N1 Astrocytoma Cells (FLIPR Assay) avg Efficacy [%] (mouse P2X4) | pain behavior (relative weight distribution, dynamic weight bearing) (C57BL/6 mice)
N#Cc1cnn(-c2ccc(NC(=O)Cc3ccccc3Cl)cc2S(N)(=O)=O)c1 [Example 39, 2-(2-Chlorophenyl)-N-[4-(4-cyano-1H-pyrazol-1-yl)-3-sulfamoylphenyl]acetamide] | 83 | 87 | –
NS(=O)(=O)c1cc(NC(=O)Cc2ccccc2Cl)ccc1-c1cnn(C(F)F)c1 [Example 326, 2-(2-Chlorophenyl)-N-{4-[1-(difluoromethyl)-1H-pyrazol-4-yl]-3-sulfamoylphenyl}acetamide] | 80 | 87 | significantly reduced pain behavior

Reference: US11524938B2, “Aromatic sulfonamide derivatives” (Bayer Pharma Aktiengesellschaft, priority 2016, dated 2022)
